# Laboratory results as given in article PMC7034070, “Synthesis, anti-inflammatory, cytotoxic, and COX-1/2 inhibitory activities of cyclic imides bearing 3-benzenesulfonamide, oxime, and β-phenylalanine scaffolds: a molecular docking study” (Journal of Enzyme Inhibition and Medicinal Chemistry, 2020).
# Values joined by “and” are separate entries in the source; they are usually repeats but may differ in a detail not shown here. Identical values can stand only once.
# Key:
# UO-31 (Renal Cancer) = experiment: NCI 59 cell line panel, single dose; format: cell-based; settings: UO-31, one dose 10.0 μM
# COX-1 = target: T1, COX-1 (Ovis aries, UniProt P05979); experiment: colorimetric COX (ovine) inhibitor screening assay kit; format: biochemical; settings: ovine COX-1, mean of two determinations
# T1 construct: purchased Cayman Chemicals Inc., Ann Arbour, MI
# T1 sequence (P05979 25-600): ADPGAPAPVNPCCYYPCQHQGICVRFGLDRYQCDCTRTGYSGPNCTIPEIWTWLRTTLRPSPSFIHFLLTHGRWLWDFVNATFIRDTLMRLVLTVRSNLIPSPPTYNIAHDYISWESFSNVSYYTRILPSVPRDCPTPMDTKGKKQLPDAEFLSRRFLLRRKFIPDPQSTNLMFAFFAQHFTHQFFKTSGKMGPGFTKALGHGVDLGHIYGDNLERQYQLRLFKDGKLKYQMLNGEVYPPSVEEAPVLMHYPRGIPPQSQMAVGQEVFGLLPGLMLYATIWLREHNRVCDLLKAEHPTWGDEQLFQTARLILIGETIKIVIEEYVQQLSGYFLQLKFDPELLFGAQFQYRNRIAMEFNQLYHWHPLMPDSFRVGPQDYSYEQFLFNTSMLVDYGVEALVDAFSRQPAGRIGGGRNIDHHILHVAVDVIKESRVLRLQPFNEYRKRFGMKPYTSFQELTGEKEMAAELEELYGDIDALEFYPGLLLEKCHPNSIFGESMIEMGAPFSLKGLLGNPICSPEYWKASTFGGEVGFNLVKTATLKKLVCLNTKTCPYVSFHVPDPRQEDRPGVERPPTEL
# Excerpt: (§1) To determine the relative ability of the test compounds and reference drugs to inhibit COX-1/COX-2 isozymes, we used the colorimetric COX (ovine) inhibitor screening assay kit (Cayman Chemicals Inc., Ann Arbour, MI), according to the manufacturer’s instructions[3]^,[10]^,[11]^,[20].
# COX-2 = target: T2, COX-2 (Ovis aries, UniProt P79208); experiment: as above; format: biochemical; settings: for SI, selectivity index (COX-1 IC50/COX-2 IC50): ovine COX-1/COX-2; for IC50: ovine COX-2, mean of two determinations
# T2 construct: purchased Cayman Chemicals Inc., Ann Arbour, MI
# T2 sequence (P79208 17-603): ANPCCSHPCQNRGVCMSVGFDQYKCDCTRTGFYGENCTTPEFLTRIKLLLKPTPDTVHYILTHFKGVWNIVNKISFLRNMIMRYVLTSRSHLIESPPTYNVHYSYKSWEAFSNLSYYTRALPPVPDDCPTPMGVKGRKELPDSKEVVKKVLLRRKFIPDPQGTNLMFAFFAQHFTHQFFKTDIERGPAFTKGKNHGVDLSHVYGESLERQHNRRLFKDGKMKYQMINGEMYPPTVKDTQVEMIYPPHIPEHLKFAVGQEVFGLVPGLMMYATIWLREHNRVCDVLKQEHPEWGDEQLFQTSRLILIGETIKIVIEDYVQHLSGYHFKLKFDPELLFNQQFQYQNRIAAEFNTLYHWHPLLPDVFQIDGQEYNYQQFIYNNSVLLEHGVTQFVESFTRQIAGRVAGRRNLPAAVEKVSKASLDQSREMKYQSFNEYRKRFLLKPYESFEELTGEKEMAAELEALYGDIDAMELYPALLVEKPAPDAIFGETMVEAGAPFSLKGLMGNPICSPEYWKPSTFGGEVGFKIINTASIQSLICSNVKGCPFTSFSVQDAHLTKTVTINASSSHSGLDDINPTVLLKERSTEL
# Excerpt: as §1
# 59 cancer cell lines = experiment: full NCI 59 cell line panel assay, single dose; format: cell-based; settings: one dose 10.0 μM, 59 cell lines
# [1] = test system: NCI-H522 (NSC Lung Cancer); experiment: NCI 59 cell line panel, single dose; format: cell-based; settings: NCI-H522, one dose 10.0 μM
# SNB-75 (CNS Cancer) = experiment: NCI 59 cell line panel, single dose; format: cell-based; settings: SNB-75, one dose 10.0 μM
# [2] = test system: carrageenan induced rat paw oedema; experiment: rat carrageenan-induced foot paw oedema model; format: in vivo; settings: for Mean % increase in paw weight ± SEM / % Inhibition of paw oedema from control group: 2 h after carrageenan; for Mean % increase in paw weight ± SEM: control group 165.6 ± 1.6; for % Inhibition of paw oedema from control group: single dose screen (Table 1)
# Protocol: Anti-inflammatory assessment of the newly synthesised compounds was carried out using an in vivo rat carrageenan-induced foot paw oedema model, as reported previously[16]^,[17].
# HOP-92 (NSC Lung Cancer) = experiment: NCI 59 cell line panel, single dose; format: cell-based; settings: HOP-92, one dose 10.0 μM
# mice = experiment: Ulcerogenicity measurement; format: in vivo
# Protocol: Ulcerogenicity was evaluated according to a previously reported method[6]^a,[17]^,[18]. The number and total length of the ulcers for each animal were measured and their averages were calculated and used as the ulcer indices.
Compound,GI% (UO-31 (Renal Cancer)) [%],IC50 (COX-1) [µM],"SI, selectivity index (COX-1 IC50/COX-2 IC50) (COX-2)",IC50 (COX-2) [µM],PCE (positive cytotoxic effect: cell lines with growth inhibition >10% / total number of cell lines) (59 cancer cell lines),melting point [°C],GI% [1] [%],GI% (SNB-75 (CNS Cancer)) [%],Mean % increase in paw weight ± SEM [2] [%],% Inhibition of paw oedema from control group [2],GI% (HOP-92 (NSC Lung Cancer)) [%],Percentage inhibition of paw oedema from control group ([2]; dose 45 mg/kg) [%],Percentage inhibition of paw oedema from control group ([2]; dose 65 mg/kg) [%],Percentage inhibition of paw oedema from control group ([2]; dose 80 mg/kg) [%],"ED50 ([2]; from three graded doses (45, 65, 80 mg/kg)) [mg/kg]",Average number of ulcers (mice; mice),"Mean sum of lengths of elongated ulcer (mice; mice, ± SEM) [mm]",level of ulcerogenic activity (in words) (mice; relative to diclofenac and celecoxib)
"NS(=O)(=O)c1cccc(N2C(=O)C3CC=CCC3C2=O)c1 (centres unmarked) [Compound 3, 3-(1,3-Dioxo-1,3,3a,4,7,7a-hexahydro-2H-isoindol-2-yl)benzenesulfonamide]",16,> 50,>250.0,0.2,3/59,159 to 161,12,12,42.4 ± 0.2,77.0% and 77.0 ± 0.6%,,,,,,,,
"CC(C)(C)c1ccc2c(c1)C(=O)N(c1cccc(S(N)(=O)=O)c1)C2=O [Compound 6, 3-(5-(tert-Butyl)-1,3-dioxoisoindolin-2-yl)benzenesulfonamide]",,> 50,>12.5,4,2/59,151 to 153,,12,106.1 ± 0.9,40.9% and 40.9 ± 0.6%,19,,,,,,,
NS(=O)(=O)c1cccc(N2C(=O)c3c(Cl)c(Cl)c(Cl)c(Cl)c3C2=O)c1 [Compound 8],17,,,,3/59,,,13,134.0 ± 0.9,26.9% and 26.9 ± 0.5%,11,,,,,,,
"NS(=O)(=O)c1cccc(N2C(=O)c3cccc4cccc(c34)C2=O)c1 [Compound 10, 3-(1,3-Dioxo-1H-benzo[de]isoquinolin-2(3H)-yl)benzenesulfonamide]",,> 50,>14.3,3.5,,241 to 243,,,93.7 ± 0.4,49.2% and 49.2 ± 0.6%,,,,,,,,
"CC(=NO)c1ccc(N2C(=O)CCC2=O)cc1 [Compound 11, 1-(4-(1-(Hydroxyimino)ethyl)phenyl)pyrrolidine-2,5-dione]",,> 50,>227.3,0.22,,184 to 186,,,45.0 ± 0.3,75.6% and 75.6 ± 0.6%,,,,,,,,
"CC(=NO)c1ccc(N2C(=O)c3ccc([N+](=O)[O-])cc3C2=O)cc1 [Compound 18, 2-(4-(1-(Hydroxyimino)ethyl)phenyl)-5-nitroisoindoline-1,3-dione]",,> 50,>333.3,0.15,,269 to 271,,,31.6 ± 0.4,82.9% and 82.9 ± 0.8%,,70.1,82.9,91.9,35.4,2,0.9 ± 0.08,very low levels of ulcerogenic activity
"CC(=NO)c1ccc(N2C(=O)c3cccc4cccc(c34)C2=O)cc1 [Compound 19, 2-(4-(1-(Hydroxyimino)ethyl)phenyl)-1H-benzo[de]isoquinoline-1,3(2H)-dione]",,> 50,>178.6,0.28,,> 300,,,57.6 ± 0.5,68.8% and 68.8 ± 0.4%,,,,,,,,
"O=C(O)CC(c1ccccc1)N1C(=O)CCC1=O (centres unmarked) [Compound 21, 3-(2,5-Dioxopyrrolidin-1-yl)-3-phenylpropanoic acid]",,16.6,0.55,30.3,,259 to 261,,,98.9 ± 0.6,46.4% and 46.4 ± 0.3%,,,,,,,,
"O=C(O)CC(c1ccccc1)N1C(=O)c2ccc([N+](=O)[O-])cc2C1=O (centres unmarked) [Compound 28, 3-(5-Nitro-1,3-dioxoisoindolin-2-yl)-3-phenylpropanoic acid]",,18.2,0.61,30,,191 to 193,,,100.9 ± 0.8,42.5% and 42.5 ± 0.2%,,,,,,,,
